{"source": "patent US20070249590A1", "about": "“Substituted indolo[2,3-a]pyrrolo[3,4-c]carbazole compounds useful in treating kinase disorders” (priority 2005, published 2007)"}
{"target": "T1, JAK3 (JH1 and JH2 domain) (Homo sapiens, UniProt P52333)", "T1 sequence (P52333 521-1111 limits assumed)": "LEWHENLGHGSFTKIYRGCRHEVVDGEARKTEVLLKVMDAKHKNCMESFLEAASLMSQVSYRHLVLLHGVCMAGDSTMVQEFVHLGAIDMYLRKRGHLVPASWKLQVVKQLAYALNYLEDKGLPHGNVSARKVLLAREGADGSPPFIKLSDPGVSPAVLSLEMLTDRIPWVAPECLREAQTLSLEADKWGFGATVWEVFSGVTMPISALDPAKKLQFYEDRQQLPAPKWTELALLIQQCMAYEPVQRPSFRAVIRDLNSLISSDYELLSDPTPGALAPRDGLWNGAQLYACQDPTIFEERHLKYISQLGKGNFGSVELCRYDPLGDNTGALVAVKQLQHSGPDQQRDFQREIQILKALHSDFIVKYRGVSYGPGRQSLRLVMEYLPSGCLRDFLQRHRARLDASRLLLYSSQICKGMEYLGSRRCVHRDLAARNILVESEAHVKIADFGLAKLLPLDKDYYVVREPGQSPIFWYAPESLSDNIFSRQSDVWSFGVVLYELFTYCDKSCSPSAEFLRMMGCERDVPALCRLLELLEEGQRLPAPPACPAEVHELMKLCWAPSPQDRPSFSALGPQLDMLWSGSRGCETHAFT", "assay": "JAK3 Kinase Assay (ELISA of peptide substrate phosphorylation)", "assay_type": "biochemical", "settings": "purified JAK3 enzyme, 10 μM ATP, biotinylated peptide substrate, 1 hour at room temperature", "how_it_was_run": "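Sf21-baculovirus-expressed JAK3 (JH1+JH2), glutathione-bead purified, with biotinylated peptide substrate (in buffer containing 10 μM ATP) in HEPES pH 7.5/MgCl2/DTT, 1 h RT. Product was captured on Neutravidin, detected with HRP anti-phosphotyrosine (PY99)/TMB, OD 450/650 nm. Triplicate 16-point half-log series from 200 μM gave IC50; otherwise % inhibition at 1 μM.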", "units": {"IC50": "nM"}}
{"smiles": "O=C1NCc2c1c1c3ccccc3n3c1c1c2c2ccccc2n1CC(COC(=O)N1CCN(c2ccc(O)cc2)CC1)C3", "note": "(centres unmarked) [Cpd 158, 12,13-(2-{[4-(4-hydroxy-phenyl)piperazin-1-yl]carbonyloxymethyl}-propan-1,3-yl)-6,7,12,13-tetrahydro-5-oxo-5H-indolo[2,3-a]pyrrolo[3,4-c]carbazole]", "IC50": 123}
{"smiles": "O=C(NCCc1ccccn1)OCC1Cn2c3ccccc3c3c4c(c5c6ccccc6n(c5c32)C1)C(=O)NC4", "note": "(centres unmarked) [Cpd 160, 12,13-{2-[(2-pyridin-2-yl-ethyl)carbamoyloxymethyl]-propan-1,3-yl}-6,7,12,13-tetrahydro-5-oxo-5H-indolo[2,3-a]pyrrolo[3,4-c]carbazole]", "IC50": "> 200"}
{"smiles": "COc1ccc(CCNC(=O)OCC2Cn3c4ccccc4c4c5c(c6c7ccccc7n(c6c43)C2)C(=O)NC5)cc1OC", "note": "(centres unmarked) [Cpd 161, 12,13-(2-{[2-(3,4-dimethoxy-phenyl)ethyl]carbamoyloxymethyl}-propan-1,3-yl)-6,7,12,13-tetrahydro-5-oxo-5H-indolo[2,3-a]pyrrolo[3,4-c]carbazole]", "IC50": 1010}
{"smiles": "O=C1NCc2c1c1c3ccccc3n3c1c1c2c2ccccc2n1CC(COC(=O)N1CCC(N2CCCC2)CC1)C3", "note": "(centres unmarked) [Cpd 162, 12,13-{2-[(4-pyrrolidin-1-yl-piperidin-1-yl)carbonyloxymethyl]-propan-1,3-yl}-6,7,12,13-tetrahydro-5-oxo-5H-indolo[2,3-a]pyrrolo[3,4-c]carbazole]", "IC50": 655}
{"smiles": "O=C(NC1CCN(Cc2ccccc2)CC1)OCC1Cn2c3ccccc3c3c4c(c5c6ccccc6n(c5c32)C1)C(=O)NC4", "note": "(centres unmarked) [Cpd 163, 12,13-{2-[(1-benzyl-piperidin-4-yl)carbamoyloxymethyl]-propan-1,3-yl}-6,7,12,13-tetrahydro-5-oxo-5H-indolo[2,3-a]pyrrolo[3,4-c]carbazole]", "IC50": "~1000"}
{"smiles": "O=C1NCc2c1c1c3ccccc3n3c1c1c2c2ccccc2n1CC(COC(=O)N1CCN(CCO)CC1)C3", "note": "(centres unmarked) [Cpd 164, 12,13-(2-{[4-(2-hydroxy-ethyl)piperazin-1-yl]carbonyloxymethyl}-propan-1,3-yl)-6,7,12,13-tetrahydro-5-oxo-5H-indolo[2,3-a]pyrrolo[3,4-c]carbazole]", "IC50": 377}
{"smiles": "O=C(NCCCN1CCOCC1)OCC1Cn2c3ccccc3c3c4c(c5c6ccccc6n(c5c32)C1)C(=O)NC4", "note": "(centres unmarked) [Cpd 165, 12,13-{2-[(3-morpholin-4-yl-prop-1-yl)carbamoyloxymethyl]-propan-1,3-yl}-6,7,12,13-tetrahydro-5-oxo-5H-indolo[2,3-a]pyrrolo[3,4-c]carbazole]", "IC50": 278}
{"smiles": "O=C1NCc2c1c1c3ccccc3n3c1c1c2c2ccccc2n1CC(COC(=O)N1CCN(CCOCCO)CC1)C3", "note": "(centres unmarked) [Cpd 166, 12,13-[2-({4-[2-(2-hydroxy-ethoxy)ethyl]piperazin-1-yl}carbonyloxymethyl)-propan-1,3-yl]-6,7,12,13-tetrahydro-5-oxo-5H-indolo[2,3-a]pyrrolo[3,4-c]carbazole]", "IC50": 578}
{"smiles": "O=C1NCc2c1c1c3ccccc3n3c1c1c2c2ccccc2n1CC(COC(=O)N1CCN(C(=O)OCc2ccccc2)CC1)C3", "note": "(centres unmarked) [Cpd 167, 12,13-(2-{[4-(benzyloxycarbonyl)piperazin-1-yl]carbonyloxymethyl}-propan-1,3-yl)-6,7,12,13-tetrahydro-5-oxo-5H-indolo[2,3-a]pyrrolo[3,4-c]carbazole]", "IC50": 202}
{"smiles": "O=C1NCc2c1c1c3ccccc3n3c1c1c2c2ccccc2n1CC(COC(=O)N1CC[C@@H](O)C1)C3", "note": "(stereo partly drawn) [Cpd 168, 12,13-(2-{[(3R)-3-hydroxy-pyrrolidin-1-yl]carbonyloxymethyl}-propan-1,3-yl)-6,7,12,13-tetrahydro-5-oxo-5H-indolo[2,3-a]pyrrolo[3,4-c]carbazole]", "IC50": 346}
{"smiles": "COc1ccccc1CNC(=O)OCC1Cn2c3ccccc3c3c4c(c5c6ccccc6n(c5c32)C1)C(=O)NC4", "note": "(centres unmarked) [Cpd 169, 12,13-{2-[(2-methoxy-benzyl)carbamoyloxymethyl]-propan-1,3-yl}-6,7,12,13-tetrahydro-5-oxo-5H-indolo[2,3-a]pyrrolo[3,4-c]carbazole]", "IC50": 73}
